According to patent publication US8455397B2, “Penoxsulam as a turfgrass, vineyard and orchard floor herbicide” (Dow AgroSciences, LLC, priority 2005, dated 2013):

How the values were obtained:
[1] = system: broadleaf weeds and sedges; test: Weed control in turfgrass and vine and orchard floors (general statement); format: in vivo; settings: TRFRE, PLALA, TAROF, PLAMA, GLEHE, LESST, HYDSS, DIQVI, BELPE, CYPES
redroot pigweed (AMARE) = test: Pre-emergence weed nursery field study; format: in vivo, Amaranthus retroflexus; settings: weed nursery in the field, 27 Days After Application
Description: Field studies were conducted in a non-fumigated weed nursery trial. Weed species were planted in single strips with a row planter at 36 centimeter spacing. Plot size was 3.05×9.2 meters, 4 replicate plots per treatment. Weed species were seeded at appropriate depths and later the same day pre-emergent applications were made to the soil surface. Liquid applications were made using a backpack sprayer calibrated to deliver 187 liters per hectare (L/ha). Applications were made in Fresno, Calif. in June. Sprinkler irrigation was applied at regular intervals throughout study period. Control of each weed species in the study site was made 4 weeks after treatment. Control was determined visually by comparing treated and untreated weeds and scored on a 0 to 100 percent scale where 0 corresponds to no control and 100 corresponds to complete kill or no emergence.

yellow nutsedge (CYPES) = test: Granule carrier/particle size, post emergence greenhouse study; format: in vivo, Cypres esculentus L.; settings: postemergent greenhouse
Description: (§1) Greenhouse and field studies evaluated the effect of two granule carriers and two particles sizes on the postemergent broadleaf activity of penoxsulam. The two carriers were a 46-0-0 and 28-4-12 fertilizer blend and the particle sizes averaged 0.75 mm and 2.15 mm.
(§2) Greenhouse studies were applied both post and pre-emergence to broadleaf weeds and sedge reared from seed or nutlet in 12.7″ (32.25 cm) by 8.8″ (22.35 cm) flats of a loam soil. Particle size and carrier were evaluated post emergence, carrier comparisons with the smaller particle size of 0.75 was evaluated pre-emergence. Stage of growth of species at post emergence application: PLAMA and TAROF in the 3 to 5 leaf stage, TRFRE in the 3rd tri-foliate stage and CYPES in the 3 to 4 leaf stage. Post emergence trial design was a replicated block, one species per flat, 3 replicate flats per treatment. Granule treatments were uniformly applied to individual flats on an area basis using a common hand-shaker method. Post emergence applications were made to the flat covering both soil and misted foliage. Trial was sub-irrigated daily, and watered over the top 1 time per week starting 7 days after application to simulate a natural rainfall event. Active weed growth was maintained throughout the study period. Weed control of each species in the post emergence study was assessed at 2, 3 and 4 weeks after treatment. Pre-emergence trial design was 2 species per flat, 4 replicate flats, block design. Pre-emergence applications were made to the soil surface using a common hand shaker method on an area basis. Overhead irrigation was maintained throughout the trial. Weed control of each species in the pre-emergence study was assessed at 2, 3, 4 and 5 weeks after application. Control was determined visually by comparing treated and untreated flats and scored on a 0 to 100 percent scale where 0 corresponds to no control and 100 corresponds to complete kill.

turfgrass = settings: in vivo
[2] = system: vine and orchard floor weeds; test: Vine and orchard floor weed control (general statement); format: in vivo; settings: APESV, AMARE, POROL, SETFA, ECHCG, ECHCO, SSYIR, SINAR, EPHHE, EROCI, MALNE, MALPA, SONOL, SENVU
white clover (TRFRE) = test: Granule carrier comparison, pre-emergence greenhouse study; format: in vivo, Trifolium repens L.; settings: pre-emergent greenhouse
Description: as §1, §2

dandelion (TAROF) = test: Granule carrier/particle size, post emergence greenhouse study; format: in vivo, Taraxacum officinale; settings: postemergent greenhouse
Description: as §1, §2

[3] = system: Hydrocotyle species (HYDSS); test: Post emergent synergy field study, penoxsulam + dicamba granule; format: in vivo; settings: average of 2 studies 4 weeks after application
Description: Field and greenhouse studies were conducted to determine if there may be any synergistic response when penoxsulam is combined with other herbicides for post emergence broadleaf or sedge control. Field studies were conducted in established turfgrass sites containing a natural population of target broadleaf weeds. Replicated trials, containing a minimum of three replications and having individual plots ranging in size from 25 to 50 ft. sq (2.3 to 4.6 square meters), were initiated in the late spring when turf and weeds were actively growing. Granule treatments were uniformly applied to individual plots using a common hand-shaker method. Applications were made in the early morning when dew was present. Natural rainfall and supplemental irrigation were used to maintain healthy turf and active weed growth throughout the study period. Control of each weed species in the study site was made at 2, 4 and 8 weeks after treatment. Control was determined visually by comparing treated and untreated weeds and scored on a 0 to 100 percent scale where 0 corresponds to no control and 100 corresponds to complete kill.
Component A was penoxsulam at 0.02 or 0.04 lb ai/A. Component B was dicamba at 0.1 lb ai/A. Individual products and mixture were applied on a 30-3-4 granule fertilizer formulated to deliver 116 pounds fertilizer per acre (129 kg per hectare). Loadings for the individual component on the fertilizer were: • Penoxsulam 22.4 gai/Ha (0.02 lb ai/A)=0.017% • Penoxsulam 44.9 gai/Ha (0.04 lb ai/A)=0.034% • Dicamba 112 gae/Ha (0.1 lb ai/A)=0.086%
For combinations the same loadings were applied to the same granule carrier and applied as a single product to test area.

[4] = carrier 28-4-12, particle size 0.75 mm, 5.6 gai/Ha
[5] = carrier 28-4-12, particle size 0.75 mm, 11.2 gai/Ha
[6] = carrier 28-4-12, particle size 0.75 mm, 22.4 gai/Ha
[7] = carrier 28-4-12, particle size 2.15 mm, 5.6 gai/Ha
[8] = carrier 28-4-12, particle size 2.15 mm, 11.2 gai/Ha
[9] = carrier 28-4-12, particle size 2.15 mm, 22.4 gai/Ha
[10] = carrier 46-0-0, particle size 0.75 mm, 5.6 gai/Ha
[11] = carrier 46-0-0, particle size 0.75 mm, 11.2 gai/Ha
[12] = carrier 46-0-0, particle size 0.75 mm, 22.4 gai/Ha
[13] = carrier 46-0-0, particle size 2.15 mm, 5.6 gai/Ha
[14] = carrier 46-0-0, particle size 2.15 mm, 11.2 gai/Ha
[15] = carrier 46-0-0, particle size 2.15 mm, 22.4 gai/Ha

COc1cnc(OC)n2nc(NS(=O)(=O)c3c(OCC(F)F)cccc3C(F)(F)F)nc12 [Penoxsulam, 2-(2,2-difluoroethoxy)-N-(5,8-dimethoxy[1,2,4]triazolo[1,5-c]-pyrimidin-2-yl)-6-(trifluoromethyl)benzenesulfonamide]
effectiveness against most important weeds [1]: particularly effective | Pre-emergent Percent Mean Control (redroot pigweed (AMARE); 8.8 gai/Ha): 100% | Pre-emergent Percent Mean Control (redroot pigweed (AMARE); 17.5 gai/Ha): 100% | Pre-emergent Percent Mean Control (redroot pigweed (AMARE); 35 gai/Ha): 100% | Pre-emergent Percent Mean Control (redroot pigweed (AMARE); 70 gai/Ha): 100% | Percent Weed Control 27-30 DAA (yellow nutsedge (CYPES); [4]): 18% | Percent Weed Control 27-30 DAA (yellow nutsedge (CYPES); [5]): 37% | Percent Weed Control 27-30 DAA (yellow nutsedge (CYPES); [6]): 60% | Percent Weed Control 27-30 DAA (yellow nutsedge (CYPES); [7]): 37% | Percent Weed Control 27-30 DAA (yellow nutsedge (CYPES); [8]): 25% | Percent Weed Control 27-30 DAA (yellow nutsedge (CYPES); [9]): 35% | Percent Weed Control 27-30 DAA (yellow nutsedge (CYPES); [10]): 18% | Percent Weed Control 27-30 DAA (yellow nutsedge (CYPES); [11]): 30% | Percent Weed Control 27-30 DAA (yellow nutsedge (CYPES); [12]): 65% | Percent Weed Control 27-30 DAA (yellow nutsedge (CYPES); [13]): 3% | Percent Weed Control 27-30 DAA (yellow nutsedge (CYPES); [14]): 20% | Percent Weed Control 27-30 DAA (yellow nutsedge (CYPES); [15]): 42% | damage to mature, well-established turfgrass (turfgrass): acceptable or no damage | effectiveness in controlling vine and orchard floor weeds [2]: effective | Percent Weed Control 35 DAA (white clover (TRFRE); [4]): 80% | Percent Weed Control 35 DAA (white clover (TRFRE); [5]): 98% | Percent Weed Control 35 DAA (white clover (TRFRE); [6]): 99% | Percent Weed Control 35 DAA (white clover (TRFRE); [10]): 55% | Percent Weed Control 35 DAA (white clover (TRFRE); [11]): 75% | Percent Weed Control 35 DAA (white clover (TRFRE); [12]): 98% | Percent Weed Control 27-30 DAA (dandelion (TAROF); [4]): 50% | Percent Weed Control 27-30 DAA (dandelion (TAROF); [5]): 88% | Percent Weed Control 27-30 DAA (dandelion (TAROF); [6]): 97% | Percent Weed Control 27-30 DAA (dandelion (TAROF); [7]): 23% | Percent Weed Control 27-30 DAA (dandelion (TAROF); [8]): 60% | Percent Weed Control 27-30 DAA (dandelion (TAROF); [9]): 68% | Percent Weed Control 27-30 DAA (dandelion (TAROF); [10]): 55% | Percent Weed Control 27-30 DAA (dandelion (TAROF); [11]): 67% | Percent Weed Control 27-30 DAA (dandelion (TAROF); [12]): 98% | Percent Weed Control 27-30 DAA (dandelion (TAROF); [13]): 23% | Percent Weed Control 27-30 DAA (dandelion (TAROF); [14]): 48% | Percent Weed Control 27-30 DAA (dandelion (TAROF); [15]): 60% | % Control Component A ([3]; 22.4 gai/Ha on 30-3-4 granule fertilizer): 37% | % Control Component A ([3]; 44.9 gai/Ha on 30-3-4 granule fertilizer): 59%
